Assay results published in patent US20220144848A1, “SUBSTITUTED OXOPYRIDINE DERIVATIVES” (Bayer Aktiengesellschaft, priority 2018, published 2022).

Assays:
[1] = target: T1, human factor XIa (Homo sapiens, UniProt P03951); experiment: Measurement of FXIa inhibition (fluorogenic peptide substrate Boc-Glu(OBzl)-Ala-Arg-AMC); assay type: biochemical; details: factor XIa from Kordia, 15 min preincubation, 30 min at 22° C., fluorescence; some as mean values from multiple determinations
T1 construct: purchased Kordia
T1 sequence (P03951 388-625 limits assumed): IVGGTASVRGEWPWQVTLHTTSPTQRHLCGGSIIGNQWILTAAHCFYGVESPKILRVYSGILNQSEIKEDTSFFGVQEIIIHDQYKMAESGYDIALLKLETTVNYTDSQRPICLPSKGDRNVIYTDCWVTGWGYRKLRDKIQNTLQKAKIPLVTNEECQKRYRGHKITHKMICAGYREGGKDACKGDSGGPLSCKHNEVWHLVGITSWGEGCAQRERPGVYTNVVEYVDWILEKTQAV
T1 sequence (P03951 19-387 partner limits assumed): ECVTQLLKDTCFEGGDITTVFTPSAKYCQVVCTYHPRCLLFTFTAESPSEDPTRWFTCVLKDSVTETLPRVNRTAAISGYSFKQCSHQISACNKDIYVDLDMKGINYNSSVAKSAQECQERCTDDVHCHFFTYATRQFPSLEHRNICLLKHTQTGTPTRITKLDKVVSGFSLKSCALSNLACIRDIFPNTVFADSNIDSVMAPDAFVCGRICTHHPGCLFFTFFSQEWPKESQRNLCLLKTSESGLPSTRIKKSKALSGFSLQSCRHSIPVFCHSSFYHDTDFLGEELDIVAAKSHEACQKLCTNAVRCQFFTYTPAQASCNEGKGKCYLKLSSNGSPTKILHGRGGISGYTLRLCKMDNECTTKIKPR
Experimental: (§1) The factor XIa inhibition of the substances according to the invention is determined using a biochemical test system which utilizes the reaction of a peptidic factor XIa substrate to determine the enzymatic activity of human factor XIa. Here, factor XIa cleaves from the peptidic factor XIa substrate the C-terminal aminomethylcoumarin (AMC), the fluorescence of which is measured. The determinations are carried out in microtitre plates.
Test substances are dissolved in dimethyl sulfoxide and serially diluted in dimethyl sulfoxide (3000 μM to 0.0078 μM; resulting final concentrations in the test: 50 μM to 0.00013 μM). In each case 1 μl of the diluted substance solutions is placed into the wells of white microtitre plates from Greiner (384 wells). 20 μl of assay buffer (50 mM of Tris/HCl pH 7.4; 100 mM of sodium chloride; 5 mM of calcium chloride; 0.1% of bovine serum albumin) and 20 μl of factor XIa from Kordia (0.45 nM in assay buffer) are then added successively. After 15 min of incubation, the enzyme reaction is started by addition of 20 μl of the factor XIa substrate Boc-Glu(OBzl)-Ala-Arg-AMC dissolved in assay buffer (10 μM in assay buffer) from Bachem, the mixture is incubated at room temperature (22° C.) for 30 min and fluorescence is then measured (excitation: 360 nm, emission: 460 nm). The measured emissions of the test batches with test substance are compared to those of control batches without test substance (only dimethyl sulfoxide instead of test substance in dimethyl sulfoxide), and IC50 values are calculated from the concentration/activity relationships.

[2] = target: T2, human plasma kallikrein (Homo sapiens, UniProt P03952); experiment: Determination of the plasma kallikrein activity (fluorogenic peptide substrate H-Pro-Phe-Arg-AMC); assay type: biochemical; details: plasma kallikrein from Kordia, 15 min preincubation, 30 min at 22° C., fluorescence; some as mean values from multiple determinations
T2 construct: purchased Kordia
T2 sequence (P03952 391-638 limits assumed): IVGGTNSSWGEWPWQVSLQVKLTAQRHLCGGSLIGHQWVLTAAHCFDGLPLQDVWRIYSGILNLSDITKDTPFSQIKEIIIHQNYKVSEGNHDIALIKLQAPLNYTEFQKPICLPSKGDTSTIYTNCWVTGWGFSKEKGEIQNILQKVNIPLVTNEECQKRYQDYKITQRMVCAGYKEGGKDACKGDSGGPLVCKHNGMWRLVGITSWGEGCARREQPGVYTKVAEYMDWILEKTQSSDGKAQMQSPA
T2 sequence (P03952 20-390 partner limits assumed): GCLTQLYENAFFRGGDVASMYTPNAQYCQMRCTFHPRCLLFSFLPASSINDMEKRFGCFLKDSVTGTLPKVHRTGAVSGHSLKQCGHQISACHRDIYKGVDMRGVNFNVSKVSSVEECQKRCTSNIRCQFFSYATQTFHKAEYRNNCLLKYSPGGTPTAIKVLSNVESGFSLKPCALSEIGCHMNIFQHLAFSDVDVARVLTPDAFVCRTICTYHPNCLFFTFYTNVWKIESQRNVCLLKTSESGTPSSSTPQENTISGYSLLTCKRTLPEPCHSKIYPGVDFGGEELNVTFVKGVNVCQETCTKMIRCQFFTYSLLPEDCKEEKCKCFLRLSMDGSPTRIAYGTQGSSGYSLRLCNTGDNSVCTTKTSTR
Experimental: as §1, with “To determine the plasma kallikrein” for “The factor XIa”, “invention,” for “invention is determined using”, “system is used” for “system”, “plasma kallikrein” for “factor XIa”, “plasma kallikrein.” for “factor XIa.”
Test substances are dissolved in dimethyl sulfoxide and serially diluted in dimethyl sulfoxide (3000 μM to 0.0078 μM; resulting final concentrations in the test: 50 μM to 0.00013 μM). In each case 1 μl of the diluted substance solutions is placed into the wells of white microtitre plates from Greiner (384 wells). 20 μl of assay buffer (50 mM Tris/HCl pH 7.4; 100 mM sodium chloride solution; 5 mM of calcium chloride solution; 0.1% of bovine serum albumin) and 20 μl of plasma kallikrein from Kordia (0.6 nM in assay buffer) are then added successively. After 15 min of incubation, the enzyme reaction is started by addition of 20 μl of the substrate H-Pro-Phe-Arg-AMC dissolved in assay buffer (10 μM in assay buffer) from Bachem, the mixture is incubated at room temperature (22° C.) for 30 min and fluorescence is then measured (excitation: 360 nm, emission: 460 nm). The measured emissions of the test batches with test substance are compared to those of control batches without test substance (only dimethyl sulfoxide instead of test substance in dimethyl sulfoxide), and IC50 values are calculated from the concentration/activity relationships. Activity data from this test are listed in Table B below (some as mean values from multiple independent individual determinations): […]

| Structure (SMILES) | IC50 [1] [nM] | IC50 [2] [nM] |
| --- | --- | --- |
| CC(C)OCC[C@@H](C(=O)Nc1ccc(C(N)=O)cc1)n1cc2c(cc1=O)-c1cc(Cl)ccc1C[C@@H](C)OC2 (single isomer, unassigned) [Example 20] | 6.6 | 93 |
| COCC[C@@H](C(=O)Nc1ccc(C(N)=O)c(F)c1)n1cc2c(cc1=O)-c1cc(Cl)ccc1C[C@@H](C(F)(F)F)OC2 (single isomer, unassigned) [Example 61] | 10 | 340 |
| CC1Cc2ccc(Cl)cc2-c2cc(=O)n(C(C[C@@H]3COCCO3)C(=O)Nc3ccc(C(N)=O)c(F)c3)cc2CO1 (mixture of isomers) [Example 7, 4-({2-(11-Chloro-7-methyl-2-oxo-7,8-dihydro-2H-[3]benzoxocino[5,6-c]pyridin-3(5H)-yl)-3-[(2R)-1,4-dioxan-2-yl]propanoyl}amino)-2-fluorobenzamide] | 14 | 780 |
| C[C@@H]1Cc2ccc(Cl)cc2-c2cc(=O)n([C@@H](C)C(=O)Nc3ccc(C(N)=O)cc3)cc2CO1 (single isomer, unassigned) [Example 76] | 9.8 | 190 |
| COCCC(C(=O)Nc1ccc(C(N)=O)cc1)n1cc2c(cc1=O)-c1cc(Cl)ccc1CC(C(F)(F)F)OC2 (mixture of isomers) [Example 62, 4-({2-[11-Chloro-2-oxo-7-(trifluoromethyl)-7,8-dihydro-2H-[3]benzoxocino[5,6-c]pyridin-3(5H)-yl]-4-methoxybutanoyl}amino)benzamide] | 8.1 | 420 |
| NC(=O)c1ccc(NC(=O)[C@H](C[C@@H]2COCCO2)n2cc3c(cc2=O)-c2cc(Cl)ccc2C[C@@H](C(F)(F)F)OC3)cc1F (single isomer, unassigned) [Example 57] | 3.8 | 310 |
| C[C@@H]1Cc2ccc(Cl)cc2-c2cc(=O)n([C@@H](C[C@@H]3CCCCO3)C(=O)Nc3ccc(C(N)=O)c(F)c3)cc2[C@H](C)O1 (single isomer, unassigned) [Example 72] | 2.5 | 65 |
| CC1Cc2ccc(Cl)cc2-c2cc(=O)n(C(CCOC(C)(C)C)C(=O)Nc3ccc(C(N)=O)c(F)c3)cc2CO1 (mixture of isomers) [Example 21, 4-{[4-tert-Butoxy-2-(11-chloro-7-methyl-2-oxo-7,8-dihydro-2H-[3]benzoxocino[5,6-c]pyridin-3(5H)-yl)butanoyl]amino}-2-fluorobenzamide] | 63 | 830 |
| CC[C@@H](C(=O)Nc1ccc(C(N)=O)c(F)c1)n1cc2c(cc1=O)-c1cc(Cl)ccc1C[C@@H](C)O[C@H]2C (single isomer, unassigned) [Example 71] | 3.5 | 225 |
| COCC[C@@H](C(=O)Nc1ccn2ncnc2c1)n1cc2c(cc1=O)-c1cc(Cl)ccc1C[C@@H](C(F)(F)F)OC2 (single isomer, unassigned) [Example 65] | 6.8 | 120 |
| C[C@@H]1Cc2ccc(Cl)cc2-c2cc(=O)n([C@@H](CCOC(C)(C)C)C(=O)Nc3ccn4ncnc4c3)cc2CO1 (single isomer, unassigned) [Example 26] | 28 | 170 |
| NC(=O)c1ccc(NC(=O)[C@H](C[C@@H]2CCCCO2)n2cc3c(cc2=O)-c2c(ccc(Cl)c2F)C[C@@H](C(F)(F)F)OC3)cc1 (single isomer, unassigned) [Example 69] | 1.1 | 55 |
| CC(C)[C@@H]1Cc2ccc(Cl)cc2-c2cc(=O)n([C@@H](C[C@@H]3COCCO3)C(=O)Nc3ccc4nn(C)nc4c3)cc2CO1 (single isomer, unassigned) [Example 45] | 17 | 660 |
| C[C@@H](C(=O)Nc1ccc(C(N)=O)cc1)n1cc2c(cc1=O)-c1c(ccc(Cl)c1F)C[C@@H](C(F)(F)F)OC2 (single isomer, unassigned) [Example 77] | 9.6 | 220 |
| C[C@@H]1Cc2ccc(Cl)cc2-c2cc(=O)n([C@@H](CCOC(F)F)C(=O)Nc3ccc(C(N)=O)cc3)cc2CO1 (single isomer, unassigned) [Example 17] | 2 | 72 |
| CO[C@H](C[C@@H](C(=O)Nc1ccc(C(N)=O)cc1)n1cc2c(cc1=O)-c1cc(Cl)ccc1C[C@@H](C)OC2)C(F)F (single isomer, unassigned) [Example 15] | 3.4 | 140 |
| CC1Cc2ccc(Cl)cc2-c2cc(=O)n(C(C[C@@H]3COCCO3)C(=O)Nc3ccc4nn(C)nc4c3)cc2CO1 (mixture of isomers) [Example 11, 2-(11-Chloro-7-methyl-2-oxo-7,8-dihydro-2H-[3]benzoxocino[5,6-c]pyridin-3(5H)-yl)-3-[(2R)-1,4-dioxan-2-yl]-N-(2-methyl-2H-benzotriazol-5-yl)propanamide] | 19 | 190 |
| C[C@@H]1Cc2ccc(Cl)cc2-c2cc(=O)n([C@@H](C[C@@H]3COCCO3)C(=O)Nc3ccc(C(N)=O)c(F)c3)cc2CO1 (single isomer, unassigned) [Example 8] | 6.6 | 320 |

Other lines, results leading:

| IC50 [1] [nM] | IC50 [2] [nM] | Structure (SMILES) |
| --- | --- | --- |
| 13 | 980 | CC[C@@H]1Cc2ccc(Cl)cc2-c2cc(=O)n([C@@H](C[C@@H]3CCCCO3)C(=O)Nc3ccc(C(N)=O)c(F)c3)cc2CO1 (single isomer, unassigned) [Example 31] |
| 3.6 | 810 | CC(C)C1Cc2ccc(Cl)cc2-c2cc(=O)n(C(C[C@@H]3COCCO3)C(=O)Nc3ccc(C(N)=O)cc3)cc2CO1 (mixture of isomers) [Example 42, 4-({2-(11-Chloro-7-isopropyl-2-oxo-7,8-dihydro-2H-[3]benzoxocino[5,6-c]pyridin-3(5H)-yl)-3-[(2R)-1,4-dioxan-2-yl]propanoyl}amino)benzamide] |
| 6.9 | 490 | NC(=O)c1ccc(NC(=O)C(C[C@@H]2CCCCO2)n2cc3c(cc2=O)-c2cc(Cl)ccc2CC(CO)OC3)cc1 (mixture of isomers) [Example 34, 4-{2-[11-Chloro-7-(hydroxymethyl)-2-oxo-7,8-dihydro-2H-[3]benzoxocino[5,6-c]pyridin-3(5H)-yl]-3-[(2S)-tetrahydro-2H-pyran-2-yl]propanamido}benzamide] |
| 0.8 | 27 | C[C@@H]1Cc2ccc(Cl)cc2-c2cc(=O)n([C@@H](C[C@@H]3CCCCO3)C(=O)Nc3ccc(C(N)=O)cc3)cc2[C@H](C)O1 (single isomer, unassigned) [Example 73] |
| 0.5 | 91 | NC(=O)c1ccc(NC(=O)[C@H](C[C@@H]2CCCCO2)n2cc3c(cc2=O)-c2cc(Cl)ccc2C[C@@H](C(F)(F)F)OC3)cc1 (single isomer, unassigned) [Example 55] |
| 2.4 | 420 | C[C@@H]1Cc2ccc(Cl)cc2-c2cc(=O)n([C@@H](C[C@@H]3CCCCO3)C(=O)Nc3ccc(C(N)=O)nc3)cc2CO1 (single isomer, unassigned) [Example 4] |
| 2.8 | 400 | NC(=O)c1ccc(NC(=O)C(C[C@@H]2CCCCO2)n2cc3c(cc2=O)-c2cc(Cl)ccc2CC(C(F)(F)F)OC3)cc1 (mixture of isomers) [Example 54, 4-({2-[11-Chloro-2-oxo-7-(trifluoromethyl)-7,8-dihydro-2H-[3]benzoxocino[5,6-c]pyridin-3(5H)-yl]-3-[(2S)-tetrahydro-2H-pyran-2-yl]propanoyl}amino)benzamide] |
| 5.5 | 320 | C[C@@H]1Cc2ccc(Cl)cc2-c2cc(=O)n([C@@H](C[C@@H]3CCCCO3)C(=O)Nc3ccc(C(N)=O)c(F)c3)cc2CO1 (single isomer, unassigned) [Example 2] |
| 11 | 630 | CC1Cc2ccc(Cl)cc2-c2cc(=O)n(C(C[C@@H]3CCCCO3)C(=O)Nc3ccc(C(N)=O)c(F)c3)cc2CO1 (single isomer, unassigned) [Example 1] |
